Data on 21 compounds can be found in US4596808A, “Pharmacologically active 3-substituted beta-carbolines useful as tranquilizers” (Schering Aktiengesellschaft, priority 1980, dated 1986).

Where two headings read alike, the source gives them in different places.

Assay [1] deals with pentazole-induced convulsions. Description: Antagonism of pentazole-induced convulsions. Type of assay: in vivo. As to conditions: sc. An excerpt: Moreover, the antagonism of pentazole-induced convulsions was investigated.
The test has been performed according to known test models in pharmacology,e.g., described in R. A. Turner, Screening Methods in Pharmacology, Academic Press, N.Y. and London 1965, esp. p. 164 ff., or, Woodbury, P. M., Perry, I. K. and Schmidt, R. P. Antiepileptic Drugs, Raven Press, N.Y. 1972.

For assay [2], the system named is benzodiazepine receptor. Description: In vivo inhibition of 3H-flunitrazepam binding to the benzodiazepine receptor in living brain (ED50). As to conditions: mice, subcutaneous, 3H-flunitrazepam i.v. 15 min later.
In a further assay the test system is male mice. Kind of assay: Inhibition of aggression in isolated male mice. Type of assay: in vivo. As to conditions: Mus musculus, 0.5 h, half an hour. How it is done:
The compounds of the invention have an antiaggressive effect on mice. Aggression inhibition was determined on male mice (NMR from Moellegard, Denmark) with weights of 20-22 g. The mice are kept isolated for three weeks in plastic cages and when two mice are subsequently put into the same cage, they will spontaneously and almost instantaneously start to fight.
J. Pharmacol., 1978, 47, 45-49. The compounds of this invention were administered subcutaneously and orally and the anti-aggressive effect half an hour later was determined. The ED50 values were determined from the test results. These test results are listed in Table 2 for compounds of this invention and also for several known tranquilizers.

Assay [3] concerns the target benzodiazepine receptor. Kind of assay: Displacement of 3H-flunitrazepam from benzodiazepine receptors in vitro (IC50). The class given is binding. The conditions noted are these: rat forebrain, 3H-flunitrazepam 1.0 nM, 0° C. The source says: For example, it is known that certain locations in the central nervous system of vertebrates have a high specific affinity for bonding 1,4 and 1,5-benzodiazepines. (See, e.g., R. F. Squires & C. Braestrup, Nature [London] 266 [1977], 734, which is incorporated by reference herein). These locations are called benzodiazepine receptors.
This displacement activity of the compounds of this invention has been determined by measuring IC50 and ED50 values. The IC50 value is the concentration which causes a 50% displacement of the specific binding of ^3 H-flunitrazepam (1.0 nM, 0° C.) in samples with a total volume of 0.55 ml of a suspension of brain membrane, e.g., from rats.
The displacement test is carried out as follows:
0.5 ml of a suspension of untreated rat forebrain in 25 mM KH2 PO4, at a pH of 7.1 (5-10 mg of tissue per sample) were incubated with ^3 H-diazepam (specific activity 14.4 Ci/millimole, 1.9 nM) or ^3 H-flunitrazepam (specific activity 87 Ci/millimole, 1.0 nM) for 40-60 minutes at 0° C. After incubation, the suspension is filtered through a glass frit, the residue is washed twice with a cold buffer solution and the radioactivity is measured by scintillation counting.
The test is then repeated, except prior to addition of the radioactively marked benzodiazepine, a given amount or an excess amount of the compound whose displacement activity is to be ascertained, is added. The IC50 value can then be computed from the test results obtained.

Where [4] appears, read: clonic, read-out: Antagonism of pentazole-induced convulsions, ED50 s.c., Clonic convulsions.
Where [5] appears, read: death, read-out: Antagonism of pentazole-induced convulsions, ED50 s.c., Death.
Setting [6] is: tonic, read-out: Antagonism of pentazole-induced convulsions, ED50 s.c., Tonic convulsions.
Setting [7] is: sc, s.c., read-out: Inhibition of Aggression ED50, s.c.
Where [8] appears, read: po, p.o., read-out: Inhibition of Aggression ED50, p.o.

For the compound `C(=NN1CCOCC1)c1cc2c(cn1)[nH]c1ccccc12` [drawing 44], the figures for the 50% effective dose (ED50) in assay [1] (setting [4]), in assay [1] (setting [5]) and in assay [1] (setting [6]) were 100 mg/kg, 50 mg/kg and 50 mg/kg, respectively.
Consider `CN(C)N=Cc1cc2c(cn1)[nH]c1ccc(S(=O)(=O)N(C)C)cc12` [drawing 46], for which the figures for the ED50 in assay [1] (setting [4]), in assay [1] (setting [5]) and in assay [1] (setting [6]) were 20 mg/kg, 15 mg/kg and 15 mg/kg, respectively.
Turning to `C(=NN1CCCC1)c1cc2c(cn1)[nH]c1ccccc12` [drawing 45], the ED50 in assay [1] (setting [4]) stood at 20 mg/kg; in assay [1] (setting [5]), 15 mg/kg; in assay [1] (setting [6]), 15 mg/kg.
With `CCOC(=O)C=Cc1cc2c(cn1)[nH]c1ccccc12` [CHCHCOOC2 H5, ethyl-3-(3-beta-carbolinyl)-acrylate], the ED50 in assay [1] (setting [4]) is over 100 mg/kg; in assay [1] (setting [5]), 35 mg/kg; in assay [1] (setting [6]) it was 100 mg/kg; with male mice (setting [7]), 4 mg/kg. Moreover, the “In vivo ED50, inhibition of 3H flunitrazepam binding (Affinity for the benzodiazepine receptor)” value (from here on “In vivo ED50, inhibition”) in the assay on benzodiazepine receptor [2] is given as over 250 mg/kg. In addition, the “In vitro IC50, inhibition of 3H flunitrazepam binding (Affinity for the benzodiazepine receptor)” value (shortened to “In vitro IC50, inhibition”) on benzodiazepine receptor [3] was 0.0589 µg/mL.
For `CC(=O)c1cc2c(cn1)[nH]c1ccccc12` [COCH3, 3-acetyl-beta-carboline], the ED50 in assay [1] (setting [4]) is over 100 mg/kg; in assay [1] (setting [5]) it was 75 mg/kg; in assay [1] (setting [6]), 100 mg/kg; in the assay with male mice (setting [7]), 35 mg/kg. Also, the “In vivo ED50, inhibition” value in the assay on benzodiazepine receptor [2] was found to be 100 mg/kg. Further, at benzodiazepine receptor [3], the “In vitro IC50, inhibition” value is 0.0224 µg/mL.
Take `CN(C)S(=O)(=O)c1ccc2[nH]c3cnc(C=NN4CCCC4)cc3c2c1` [drawing 48]: the 50% effective dose (ED50) in assay [1] (setting [4]) was found to be 50 mg/kg; in assay [1] (setting [5]), 20 mg/kg; in assay [1] (setting [6]), 20 mg/kg.
Take `C(=NN1CCCCC1)c1cc2c(cn1)[nH]c1ccccc12` [drawing 43]: the ED50 is over 100 mg/kg in assay [1] (setting [4]), over 100 mg/kg in assay [1] (setting [5]) and 50 mg/kg in assay [1] (setting [6]).
Consider `CC(=NO)c1cc2c(cn1)[nH]c1ccccc12` [drawing 39], for which the ED50 in the assay with male mice (setting [8]) worked out at 75 mg/kg.
Take `CCN(CC)N=Cc1cc2c(cn1)[nH]c1ccccc12` [drawing 41]: the ED50 was over 100 mg/kg in assay [1] (setting [4]), 100 mg/kg in assay [1] (setting [5]) and 100 mg/kg in assay [1] (setting [6]).
`CCOC(=O)Cc1cc2c(cn1)[nH]c1ccccc12` [CH2 COOC2 H5]: in the assay with benzodiazepine receptor [2], the “In vivo ED50, inhibition” value is recorded as over 250 mg/kg. Further, the ED50 with male mice (setting [7]) turned out to be 75 mg/kg. Also, the “In vitro IC50, inhibition” value at benzodiazepine receptor [3] worked out at 0.363 µg/mL.
For the compound `CN(C)N=Cc1cc2c(cn1)[nH]c1ccccc12` [drawing 40], the ED50 in assay [1] (setting [4]) is 20 mg/kg; in assay [1] (setting [5]) it was under 10 mg/kg; in assay [1] (setting [6]), under 10 mg/kg; in the assay on male mice (setting [8]), at most 50 mg/kg; with male mice (setting [7]), 7.5 mg/kg.
Consider `O=Cc1cc2c(cn1)[nH]c1ccccc12` [CHO, beta-carboline-3-carboxaldehyde], for which the “In vivo ED50, inhibition” value in the assay on benzodiazepine receptor [2] is recorded as over 250 mg/kg. For the same compound, the ED50 with male mice (setting [7]) was 8 mg/kg. Moreover, at benzodiazepine receptor [3], the “In vitro IC50, inhibition” value came to 0.0302 µg/mL.
As to `CON=Cc1cc2c(cn1)[nH]c1ccccc12` [CHNOCH3, beta-carboline-3-carboxaldehyde-oxime-methylether], in the assay on benzodiazepine receptor [2], the “In vivo ED50, inhibition” value turned out to be 16 mg/kg. Further, the ED50 in the assay with male mice (setting [7]) was found to be 15 mg/kg. Also, at benzodiazepine receptor [3], the “In vitro IC50, inhibition” value came to 0.0513 µg/mL.
Turning to `C(=NOCc1ccccc1)c1cc2c(cn1)[nH]c1ccccc12` [CHNOCH2 C6 H5, beta-carboline-3-carboxaldehyde-oxime-benzylether], the “In vivo ED50, inhibition” value with benzodiazepine receptor [2] is over 250 mg/kg. For the same compound, the “In vitro IC50, inhibition” value on benzodiazepine receptor [3] amounted to 0.0525 µg/mL.
For the compound `CONC=NC(=O)c1cc2c(cn1)[nH]c1ccccc12`, the “In vivo ED50, inhibition” value in the assay on benzodiazepine receptor [2] is over 250 mg/kg. Also, the “In vitro IC50, inhibition” value at benzodiazepine receptor [3] is 0.1 µg/mL.
As to `c1ccc2c(c1)[nH]c1cnc(-c3nc[nH]n3)cc12`, the “In vivo ED50, inhibition” value in the assay with benzodiazepine receptor [2] is listed as 26 mg/kg. Moreover, on benzodiazepine receptor [3], the “In vitro IC50, inhibition” value was 0.104 µg/mL.
For `CC(=NO)c1cc2c(cn1)[nH]c1ccccc12` [drawing 11], the “In vivo ED50, inhibition” value with benzodiazepine receptor [2] was 186 mg/kg. In addition, the “In vitro IC50, inhibition” value on benzodiazepine receptor [3] is over 0.1 µg/mL.
The like results for `CN(C)N=Cc1cc2c(cn1)[nH]c1ccc(S(=O)(=O)N(C)C)cc12` [drawing 32] were, in that order, 35 mg/kg and 0.004 µg/mL.
Consider `CC(=NN(C)C)c1cc2c(cn1)[nH]c1ccccc12` [drawing 42], for which the results for the ED50 in assay [1] (setting [4]), in assay [1] (setting [5]) and in assay [1] (setting [6]) were over 100 mg/kg, 75 mg/kg and 75 mg/kg, respectively.
For the compound `CN1N=C(c2cc3c(cn2)[nH]c2ccccc23)CC1=O`, the “In vivo ED50, inhibition” value in the assay with benzodiazepine receptor [2] was over 250 mg/kg. At benzodiazepine receptor [3], the “In vitro IC50, inhibition” value is over 0.4 µg/mL.
The like results for `CN1CCN(N=Cc2cc3c(cn2)[nH]c2ccccc23)CC1` were, in that order, 210 mg/kg and 0.1 µg/mL.
